According to US7090987B1, “Methods for the identification of compounds for the treatment of neuronal atrophy-associated dementia” (priority 1999, dated 2006):

What was measured:
[1] = test system: N2a cells expressing APPswe/PS1 wt; assay: Aβ secretion, metabolic labeling and anti-Aβ immunoprecipitation, SDS-PAGE/fluorography; type: cell-based, murine
From the text: (§1) Cells were then metabolically labeled for four hours, again in the absence or presence of autophagy inhibitors. The growth medium was collected and subjected to immunoprecipitation with an anti-Aβ monoclonal antibody that recognizes both Aβ1-40 and Aβ1-42. Labeled Aβ was resolved by SDS-PAGE and fluorography (FIG. 10A).

[2] = test system: N2a cells expressing APPswe/PS1Δ9; assay: as above; type: cell-based, murine
From the text: as §1

[3] = test system: N2a cells expressing APPswe/PS1 wt; assay: Secreted Aβ in conditioned medium by ELISA; type: cell-based, murine
Description: (§2) In a second set of experiments, N2a cells expressing APPswe/PS1 wt or APPswe/PS1Δ9 were incubated either in the presence or absence of 5 mM 3MA (FIG. 10B). Conditioned medium was collected and pooled from two plates and spun at 1000×g to remove cells and cellular debris. The amount of secreted Aβ was then determined using ELISA. In both APPswe/PS1 wt and APPswe/PS1 Δ9 N2A cells incubated in the presence of 3MA, there was a reduction of Aβ1-40 and Aβ1-42 in the conditioned medium (FIG. 10B). While the decrease was greatest in the N2A cells expressing mutant PS1, we found a significant decrease of approximately 20% or great for both Aβ species in both the wild-type and Δ9 PS1 expressing lines.
(§3) For the Aβ sandwich ELISA, Nunc-Immuno Plates (Nunc A/S, Roskilde, Denmark) were coated overnight using 4° C. using antibodies specific for Aβ40 or Aβ42 in 100 mM bicarbonate buffer, pH 9.6. Remaining protein binding sites were blocked by incubating with 1% Block Ace (Yukijirushi Milk, Sapporo Japan) in PBS for 4 hours at room temperature. 10% (w/v) homogenates were prepared from a hemibrain in 20 MM Tris, 250 mM sucrose, 1 mM EDTA, 1 mM EGTA, protease inhibitors, pH 7.4, and stored frozen at −70° C. Immediately prior to being loaded on the ELISA, 1 ml of the brain homogenate was extracted in diethylamine (Sigma, St. Lousi, Minn.) by adding an equal volume of 0.4% DEA in 100 mM NaCl, re-homogenized and centrifuged for 1 hour at 100,000×g. The supernatant was collected, neutralized with 0.1 volume 0.5 M Tris, pH 6.8, and loaded in duplicate wells both neat and diluted 1:2 in EC buffer (20 mM Na phosphate, 2 mM EDTA, 400 mM NaCl, 0.2% BSA, 0.4% Block Ace, 0.95% CHAPS). […] Alternatively, conditioned media collected from cells was loaded neat and 1:2. Aβ-40 and Aβ-42 peptide standards were purchased from American Peptide Co. (Sunnyvale, Calif.), stored at −70° C., and diluted in EC buffer immediately prior to use. ELISA plates were incubated overnight with 4° C. with samples and standards. Aβ was detected by incubating for 4 hours at room temperature with an HRP-conjugated anti-Aβ antibody in 20 mM Na phosphate, 2 mM EDTA, 400 mM Nacl, 1.0% BSA. ELISA plates were developed using a color reaction (ABTS Peroxide Substrate System, Kirkegaard & Perry, Gaithersburg, Md.) and the OD450 read.

[4] = test system: N2a cells expressing APPswe/PS1Δ9; assay: Secreted Aβ in conditioned medium by ELISA; type: cell-based, murine; details: 5 mM 3MA, FIG. 10B
Description: as §2, §3

[5] = test system: N2a cells expressing APPswe/PS1Δ9; assay: Tau protein levels by Western blot; type: cell-based, murine; details: for increase in tau protein levels: FIG. 10C; for tau protein levels (Western blot): figure legend FIG. 10C
Description: There are numerous assays for tau known in the art. For example, the processing of tau by immunocytochemistry and Western blot analysis is performed using an antibody that recognizes both phosphorylated and non-phosphorylated forms (Adamec et al., Brain Res. 757:93–101, 1997). Abnormal tau conformation and byperphosphorylated tau is examined using suitable monoclonal antibodies (e.g., MC1 (Jicha et al., J. Neurosci. Res. 48:128–132) and AT8 (Innogenetics, Gent, Belgium)). EM analysis can be performed to characterize cytoskeletal changes in neurons (Nixon, Bioessays 20:798–807, 1998).

[6] = test system: primary cortical neurons from normal mouse embryos; assay: Secreted Aβ by ELISA in primary cortical neuronal cultures; type: cell-based
Description: We have confirmed this effect of the autophagy inhibitor 3MA on Aβ production in primary cortical neuronal cultures derived from normal mouse embryos (FIG. 11). Following a media change, cultures were incubated in the presence or absence of 3MA for six hours. […] Dissected embryonic cortical tissue from Sprague-Dawley rat embryos (18d gestation) or mouse embryos (17d gestation) is rinsed with calcium/magnesium-free Hanks buffered saline solution and resuspended in 5.0 ml 0.125% trypsin and 0.5 mM EDTA at 37° C. […] Trypsin is quenched and the cells are plated at 1.5×10^6 cells/mL on polylysine coated plates and cultured at 37° C. in 5% CO2 in B27/Neurobasal medium (Gibco/BRL, Gaithersburg, Md.) containing 0.0015% fluorodeoxyuridine (FUDR), giving cultures that are >95% neuronal. For the Aβ sandwich ELISA, Nunc-Immuno Plates (Nunc A/S, Roskilde, Denmark) were coated overnight using 4° C. using antibodies specific for Aβ40 or Aβ42 in 100 mM bicarbonate buffer, pH 9.6. […] Immediately prior to being loaded on the ELISA, 1 ml of the brain homogenate was extracted in diethylamine (Sigma, St. Lousi, Minn.) by adding an equal volume of 0.4% DEA in 100 mM NaCl, re-homogenized and centrifuged for 1 hour at 100,000×g. […] Alternatively, conditioned media collected from cells was loaded neat and 1:2. Aβ-40 and Aβ-42 peptide standards were purchased from American Peptide Co. (Sunnyvale, Calif.), stored at −70° C., and diluted in EC buffer immediately prior to use. ELISA plates were incubated overnight with 4° C. with samples and standards. Aβ was detected by incubating for 4 hours at room temperature with an HRP-conjugated anti-Aβ antibody in 20 mM Na phosphate, 2 mM EDTA, 400 mM Nacl, 1.0% BSA. ELISA plates were developed using a color reaction (ABTS Peroxide Substrate System, Kirkegaard & Perry, Gaithersburg, Md.) and the OD450 read.

[7] = 10 mM inhibitor (leucine and histidine 10 mM each), four hours metabolic labeling, growth medium, FIG. 10A top panel
[8] = 10 mM inhibitor, C-terminal antibody, FIG. 10A bottom panel
[9] = six hours incubation, ELISA, FIG. 11

SMILES	amount of Aβ secreted [1, 7]	amount of full-length APP immunoprecipitated from cell lysates [1, 8]	Aβ generation (autoradiograph) ([1]; figure legend FIG. 10A, neuroblastoma cells, both lines shown)	amount of Aβ secreted [2, 7]	amount of full-length APP immunoprecipitated from cell lysates [2, 8]	decrease of Aβ1-40 in conditioned medium ([3]; 5 mM 3MA, ELISA, FIG. 10B)	decrease of Aβ1-42 in conditioned medium ([3]; 5 mM 3MA, ELISA, FIG. 10B)	Aβ secretion into the growth media (ELISA) ([3]; figure legend FIG. 10B, N2a cells, both lines shown)	decrease of Aβ1-40 in conditioned medium [4]	decrease of Aβ1-42 in conditioned medium [4]	increase in tau protein levels ([5]; 3MA-treated, concentration not given)	tau protein levels (Western blot) [5]	Aβ secretion into the media ([6]; figure legend FIG. 11)	reduction of Aβ40 secreted into the media [6, 9]	reduction of Aβ42 secreted into the media [6, 9]	increase in tau protein levels ([5]; vinblastine 50 μM)
Cn1cnc(N)c2ncnc1-2 [3MA, 3-methyladenine]	reduced	did not affect	decreased	reduced	did not affect	≥ 20%	≥ 20%	decreased	≥ 20%	≥ 20%	approximately 2 times	increased	reduction	approximately 20%	approximately 20%	
CC[C@]1(O)C[C@@H]2CN(CCc3c([nH]c4ccccc34)[C@@](C(=O)OC)(c3cc4c(cc3OC)N(C)[C@H]3[C@@](O)(C(=O)OC)[C@H](OC(C)=O)[C@]5(CC)C=CCN6CC[C@]43[C@@H]65)C2)C1 [vinblastine]												increased				~2.5 times
